Entries after “also recorded” stand apart in the source; their conditions may differ. Where a name gives a salt, the structure may show the parent alone. Read-outs that look alike come from different tables or passages of the source.
How the values were obtained:
[1] = test system: HEK293T cells transfected with ACE2 and TMPRSS2, SARS-CoV-2 spike-mediated cell fusion; assay: cells; type: cell-based, human
[2] = test system: HEK293 cells
[3] = human, in vivo; cited from earlier work
[4] = test system: SARS-CoV-2 Isolate USA-WA1/2020; assay: In vitro viral inhibition assay in Vero-E6 cells (spike immunofluorescence); type: cell-based
[5] = test system: Vero-E6 cells; assay: Toxicity by reduced cell count in the viral inhibition assay; details: for host cell toxicity (reduced cell count): concentration not given
[6] = test system: Vero-E6 cells
[7] = test system: Calu-3 lung cancer cells, SARS-CoV-2 spike-mediated cell fusion; type: cell-based, human
[8] = test system: Covid-19; details: in vivo; cited from earlier work
[9] = summary call Active / Not Tested, cell line not given
[10] = HEK293 syncytia assay, dose-response
[11] = summary call Active / Not Tested

CCCCCCc1ccc(O)cc1O [hexylresorcinol, Hexylresorcinol]
Syncytia Assay [1, 9]: Active | cell loss / cytotoxicity (total GFP) [2, 10]: mirrored by cell loss

C[C@]1(O)C[C@@H](c2nc(-c3ccc4ccc(-c5ccccc5)nc4c3)c3c(N)nccn32)C1 [linsitinib, Linsitinib]
inhibition of syncytia formation (cell fusion) [1]: impaired viral entry; also recorded: particularly effective; also recorded: most potent agent; also recorded: dose-responsive inhibition of syncytia formation; also recorded: complete inhibition of cell fusion; also recorded: substantially reduced spike-protein-dependent syncytia formation | EC50 ([1]; Homo sapiens, HEK-293T, cell fusion (syncytia) assay): 25 µM | inhibition of syncytia formation (cell fusion) ([1]; listed as Linsitinib): highest inhibitory activity | inhibition of syncytia formation (cell fusion) ([1]; listed as linisitinib): highest inhibitory activity | Syncytia Assay [1, 9]: Active | Cmax [3]: 5 to 10 µM

CCC(=O)N1CCN(c2ccc(-n3c(=O)ccc4cnc5ccc(-c6cnc7ccccc7c6)cc5c43)cc2C(F)(F)F)CC1 [torin-1, Torin-1]
antiviral activity / inhibition of SARS-CoV-2 infection in Vero-E6 cells ([4]; […], concentration not stated): Qualitatively similar results to salmeterol | Viral Entry Assay [4, 11]: Active | toxicity ([5]; 100 nM): toxic | host cell toxicity (reduced cell count) [6]: dose-limiting toxicity as evidenced by reduced cell count

CC(=O)c1c(O)c(C)c(O)c(Cc2c(O)c3c(c(C(=O)/C=C/c4ccccc4)c2O)OC(C)(C)C=C3)c1O [rottlerin, Rottlerin]
antiviral activity / inhibition of SARS-CoV-2 infection in Vero-E6 cells ([4]; […], concentration not stated, listed as Rottlerin): inhibited viral infection | Viral Entry Assay [4, 11]: Active | host cell toxicity (reduced cell count) ([5]; Vero-E6): dose-limiting toxicity | host cell toxicity (reduced cell count) ([5]; Vero-E6, listed as R077): dose-limiting toxicity as evidenced by reduced cell count

OCc1cc(C(O)CNCCCCCCOCCCCc2ccccc2)ccc1O (centres unmarked) [salmeterol, Salmeterol]
Viral Entry Assay [4]: Active | antiviral activity / inhibition of SARS-CoV-2 infection in Vero-E6 cells [4]: exhibited antiviral activities; also recorded: prevented viral infection; also recorded: particularly strong inhibitory activities; also recorded: particularly effective; also recorded: can block in vitro SARS-CoV-2 replication at clinically relevant concentrations | antiviral effect on spike-expressing cell population [4]: reduced the median of the spike-expressing population; also recorded: greater antiviral effect on the entire population | spike-positive cells [4]: ~14% | Syncytia Assay [1]: Active | inhibition of syncytia formation (cell fusion) [1]: had inhibitory activity in the cell fusion assay and full and not borne out by syncytia formation experiments with either HEK293T or Calu-3 cells, except at high concentration | potency in the cell fusion assay relative to the viral infection assay [1]: at least two orders of magnitude less potent | cell loss / cytotoxicity (total GFP) [2]: mirrored by cell loss | host cell toxicity (reduced cell count) [6]: without apparent host cell toxicity | inhibition of syncytia formation (cell fusion) [7]: not borne out by syncytia formation experiments with either HEK293T or Calu-3 cells, except at high concentration

O=C1[C@H](CC[C@H](O)c2ccc(F)cc2)[C@@H](c2ccc(O)cc2)N1c1ccc(F)cc1 [ezetimibe, Ezetimibe]
reduction of spike protein-expressing populations ([4]; 25 μM (highest concentration studied), Vero-E6): reduced spike protein-expressing populations only at the highest concentration studied | Viral Entry Assay [4, 11]: Active | cell numbers ([5]; 25 μM, Vero-E6): reduction in cell numbers was also observed | activity in the cell fusion assay [1]: inactive | inhibition of syncytia formation (cell fusion) [1]: impaired viral entry; also recorded: had inhibitory activity in the cell fusion assay; also recorded: inhibited both viral infection and cell fusion | potency in the cell fusion assay relative to the viral infection assay [1]: lower potency in the cell fusion assay | Syncytia Assay [1, 9]: Active

CN(C)CCC(c1ccc(Br)cc1)c1ccccn1 (centres unmarked) [brompheniramine, Brompheniramine]
inhibition of syncytia formation (cell fusion) [1]: impaired viral entry; also recorded: to a lesser extent, brompheniramine, showed dose-responsive inhibition of syncytia formation; also recorded: inhibited syncytia formation | Syncytia Assay [1, 9]: Active | cell loss / cytotoxicity (total GFP) [2, 10]: did not mirror cell loss

COCCCC/C(=N\OCCN)c1ccc(C(F)(F)F)cc1 [fluvoxamine]
decrease of Covid-19 deaths [8]: 90%

N=C(N)c1ccc2cc(OC(=O)c3ccc(N=C(N)N)cc3)ccc2c1 [nafamostat]
cell loss / cytotoxicity (total GFP) [2, 10]: did not mirror cell loss | inhibition of syncytia formation (cell fusion) [7]: prevented syncytia formation

Cc1cc(C)c(/C=C2\C(=O)Nc3ccccc32)[nH]1 [semaxanib, Semaxanib]
Syncytia Assay [1, 9]: Active

CO[C@H]1C[C@@H]2CC[C@@H](C)[C@@](O)(O2)C(=O)C(=O)N2CCCC[C@H]2C(=O)O[C@H]([C@H](C)C[C@@H]2CC[C@@H](OC(=O)C(C)(CO)CO)[C@H](OC)C2)CC(=O)[C@H](C)/C=C(\C)[C@@H](O)[C@@H](OC)C(=O)[C@H](C)C[C@H](C)/C=C/C=C/C=C/1C [temsirolimus, Temsirolimus]
antiviral activity / inhibition of SARS-CoV-2 infection in Vero-E6 cells ([4]; […], concentration not stated): Qualitatively similar results to salmeterol | Viral Entry Assay [4, 11]: Active

CN(C)CCCN1c2ccccc2CCc2ccccc21 [imipramine, Imipramine hydrochloride]
Syncytia Assay [1]: Active | inhibition of syncytia formation (cell fusion) ([1]; hydrochloride): impaired viral entry; also recorded: inhibited syncytia formation

Dec-RVKR-CMK
inhibition of syncytia formation (cell fusion) ([1]; HEK293T acceptor cells with ACE2 and TMPRSS2, 1-2 h pretreatment, 4 h co-culture): prevented syncytia formation; also recorded: similarly potent in both cell types; also recorded: dose-responsive inhibition of syncytia formation | cell loss / cytotoxicity (total GFP) [2, 10]: did not mirror cell loss | inhibition of syncytia formation (cell fusion) ([7]; Calu-3 acceptor cells, 1-2 h pretreatment, 4 h co-culture): prevented syncytia formation; also recorded: seemingly larger maximal magnitude of inhibition
